In US9957273B2, “5-substituted 7- [4-(2-pyridyl)phenylmethylamino] -3-isopropylpyrazolo4,3-D]pyrimidine derivatives, use thereof as medicaments, and pharmaceutical compositions” (USTAV EXPERIMENTALNI BOTANIKY AV CR, V.V.I., priority 2015, dated 2018):

What was measured:
Type in all cases: cell-based
[1] = tested on: MV4;11 (acute myelocytic leukemia); assay: MTT cytotoxicity assay, leukemic cell line MV4;11; settings: Homo sapiens, MV4-11, 72 h, three days
Text: Cytotoxicity of the compounds is the major property determining their antileukemic efficacy in vivo. One of the parameters used, as the basis for cytotoxicity assays, is the metabolic activity of viable cells. For example, a microtiter assay, which uses (3-(4,5-dimethylthiazol-2-yl)-2,5-diphenyltetrazolium bromide (MTT), is widely used to quantitate cell proliferation and cytotoxicity. This assay is widely used in drug screening programs and in chemosensitivity testing. Because only metabolically active living cells reduce MTT to correspond purple formazan dye, these assays detect viable cells exclusively. The quantity of reduced MTT corresponds to the number of vital cells in the culture.
(§1) The compounds were assayed using the following leukemic cell lines: K562 (human chronic myelogenous leukaemia), HL60 (human promyelocytic leukaemia), CEM (human lymphoblastoid leukaemia), THP1 (human monocytic cell line), MV4; 11 (acute myelocytic leukemia). All cell lines were grown in RPMI medium supplemented with fetal bovine serum and L-glutamine and maintained at 37° C. in a humidified atmosphere with 5% CO2. For cytotoxicity assays, 2000-5000 cells were seeded into each well of 96 well plate, allowed to stabilize for at least 8 h and then tested compounds were added at various concentrations ranging from 100 to 0.01 μM in triplicates. After three days, MTT solution (5 mg/ml; Sigma, St. Louis, USA) was added to cells and medium was replaced with DMSO after five hours. The absorbance was measured at 620 nm by employing a microplate reader. MTT assays were repeated 3 times for each drug application and untreated cells were used as reference.

[2] = tested on: G361 (malignant melanoma); assay: MTT cytotoxicity assay, solid cancer cell line G361; settings: Homo sapiens, G-361, 72 h, three days
Method: as §1, with “following” for “following leukemic”, “G361 (malignant melanoma), MCF7 (breast adenocarcinoma), PLC/PRF/5 (liver hepatoma), PANC-1 (pancreatic carcinoma) and HCT116 (colon carcinoma).” for “K562 (human chronic myelogenous leukaemia), HL60 (human promyelocytic leukaemia), CEM (human lymphoblastoid leukaemia), THP1 (human monocytic cell line), MV4; 11 (acute myelocytic leukemia).”, “DMEM” for “RPMI”, “4000-10000” for “2000-5000”, “of a” for “of”, “16” for “8”

[3] = tested on: MCF7 (breast adenocarcinoma); assay: MTT cytotoxicity assay, solid cancer cell line MCF7; settings: Homo sapiens, MCF7, 72 h, three days
Method: as §1, with “following” for “following leukemic”, “G361 (malignant melanoma), MCF7 (breast adenocarcinoma), PLC/PRF/5 (liver hepatoma), PANC-1 (pancreatic carcinoma) and HCT116 (colon carcinoma).” for “K562 (human chronic myelogenous leukaemia), HL60 (human promyelocytic leukaemia), CEM (human lymphoblastoid leukaemia), THP1 (human monocytic cell line), MV4; 11 (acute myelocytic leukemia).”, “DMEM” for “RPMI”, “4000-10000” for “2000-5000”, “of a” for “of”, “16” for “8”

[4] = tested on: PANC-1 (pancreatic carcinoma); assay: MTT cytotoxicity assay, solid cancer cell line PANC-1; settings: Homo sapiens, PANC-1, 72 h, three days
Method: as §1, with “following” for “following leukemic”, “G361 (malignant melanoma), MCF7 (breast adenocarcinoma), PLC/PRF/5 (liver hepatoma), PANC-1 (pancreatic carcinoma) and HCT116 (colon carcinoma).” for “K562 (human chronic myelogenous leukaemia), HL60 (human promyelocytic leukaemia), CEM (human lymphoblastoid leukaemia), THP1 (human monocytic cell line), MV4; 11 (acute myelocytic leukemia).”, “DMEM” for “RPMI”, “4000-10000” for “2000-5000”, “of a” for “of”, “16” for “8”

[5] = tested on: caspases 3 and 7 in HCT116 cells; assay: Caspase-3/7 activity assay in HCT116 cells; settings: 24 h, FIG. 3
Method: Measurement of proapoptotic properties of new compounds was based on quantification of enzymatic activities of caspases-3/7. Activity of cellular caspase-3/7 was measured according to Carrasco et al., 2003, BioTechniques, 34(5): 1064-67. Briefly, the cells were incubated in a 96-well plate overnight. Next day, the compounds in appropriate concentrations were added and cells were incubated for 24 hours. After incubation, 3× caspase-3/7 assay buffer (150 mM HEPES pH 7.4, 450 mM NaCl, 150 mM KCl, 30 mM MgCl2, 1.2 mM EGTA, 1.5% Nonidet P40, 0.3% CHAPS, 30% sucrose, 30 mM DTT, 3 mM PMSF) with 150 μM Ac-DEVD-AMC as a substrate (Sigma-Aldrich) was added to the wells and plates were incubated at 37° C. […]. The caspase activity was measured using Fluoroskan Ascent microplate reader (Labsystems) at 346 nm/442 nm (excitation/emission).

Mcl-1 = assay: Immunoblotting of apoptotic markers in HCT116 cells: Mcl-1; settings: 24 hours, FIG. 4
Method: (§2) Effect of novel compounds on apoptosis was confirmed by immunoblotting analysis of selected apoptotic proteins. For immunoblotting, cell were harvested, washed three times with ice-cold PBS and lysed in a buffer (50 mM Tris, pH 7.4, 250 mM NaCl, 5 mM EDTA, 50 mM NaF, 1 mM Na3VO4, 1% Nonidet P40) containing mixture of protease and phosphatase inhibitors (Sigma-Aldrich). 20 μg of total proteins were separated by SDS-polyacrylamide gel electrophoresis (SDS-PAGE) and transferred onto nitrocellulose membranes. Membranes were blocked in 5% milk and 0.1% Tween 20 in PBS and probed overnight with specific antibodies. Specific antibodies were purchased from SigmaAldrich (anti a-tubulin, clone DM1A), Santa Cruz Biotechnology (anti-Mcl-1, clone S-19; anti-PARP, clone F-2; anti-Mdm-2, clone SMP14; anti-Bcl-2), DAKO Cytomation Cell Signaling (anti-PUMA) or were a generous gift from Dr. B. Vojtesek (anti-p53, clone DO-1). All primary antibodies were diluted in PBS containing 5% powdered milk; 0.1% Tween 20. Peroxidase conjugated rabbit anti-mouse immunoglobulin or porcine anti-rabbit immunoglobulin antisera (DAKO) were used as the secondary antibodies and visualised with ECL reagents (GE-Healthcare Life Sciences).

p53 = assay: Immunoblotting of apoptotic markers in HCT116 cells: p53; settings: 24 hours, FIG. 4
Method: as §2

[6] = tested on: HUVECs (human umbilical vein endothelial cells); assay: HUVEC proliferation assay (crystal violet); settings: Homo sapiens, HUVEC, 72 h, read-out: Inhibition of proliferation (EC50)
Method: (§3) To verify that novel compounds have anti-vascularisation properties, we analyzed their influence on the proliferation and migration of HUVECs. HUVECs (human umbilical vein endothelial cells) were purchased from Promocell (Heidelberg, Germany) and cultured in endothelial cell growth medium (ECGM, Promocell, Heidelberg, Germany) containing 10% FCS (Biochrom, Berlin, Germany). Experiments were performed using cells at passage 3.
For proliferation assay, 1.5×10^3 HUVECs were cultured for 24 h. Afterwards, cells were either left untreated or treated with novel compounds for 72 h. Proliferation assay was performed using crystal violet as described previously (Koltermann et al. 2007, Cell Mol. Life Sci. 64:1715-1722).

[7] = tested on: HUVECs (human umbilical vein endothelial cells); assay: HUVEC migration (scratch) assay; settings: 16 h, read-out: Inhibition of migration (EC50)
Method: as §3
For migration assay, confluent HUVECs were scratched with a pipette tip and immediately treated with either starvation medium M199 (serum-free, negative control; PAN Biotech) or full endothelial cell growth medium (positive control). After 16 h, cells were fixed with 3% formaldehyde and images were taken using the TILLvisON system (Lochham, Germany) connected to an Axiovert 200 microscope (Zeiss, Germany). Evaluation of pictures was made by S.CO LifeScience (Garching, Germany). Migration was quantified as the ratio of the area covered with cells and the area of the cell free wound.

**Q.** With `CC(C)c1[nH]nc2c(NCc3ccc(-c4ccccn4)cc3)nc(NCC(O)CN)nc12` (stereo not drawn) [Compound 45] as the compound, how does the IC50 [1] read?
**A.** Its IC50 is 0.51 µM.

**Q.** And the IC50 [2]?
**A.** The IC50 was 0.22 µM.

**Q.** And the IC50 [3]?
**A.** The IC50 was 0.31 µM.

**Q.** And the IC50 [4]?
**A.** The IC50 was 0.32 µM.

**Q.** And the “caspase-3/7 activity in HCT116 cells” value [5]?
**A.** The value was “potent dose-dependent activation of the caspases in nanomolar concentrations”.

**Q.** And the “level of anti-apoptotic protein Mcl-1 (immunoblot)” value (Mcl-1)?
**A.** Its value is “dose-dependent decrease”.

**Q.** And the “expression of tumor suppressor protein p53 (immunoblot)” value (p53)?
**A.** Its value is “rapidly increased the expression”.

**Q.** And the EC50 [6]?
**A.** Its EC50 is 176 nM.

**Q.** And the EC50 [7]?
**A.** Its EC50 is 500 nM.
